Converted amounts (≈) assume the structure as drawn.
Tests used:
[1] = MTT cytotoxicity assay, HepG2; assay type: cell-based, human; conditions: human, HepG2 cells (hepatocellular carcinoma), 48 h
Experimental: (§1) The assessment of cytotoxicity for the methanolic extract and isolated flavonoids was performed under controlled and sterile conditions within a Class II A2 Laminar flow biosafety cabinet. The carcinoma cell lines used in this study was obtained from Nawah Scientific Inc. (Cairo, Egypt). The cells were cultured in Dulbecco’s Modified Eagle’s Medium, enriched with 10% heat-inactivated fetal bovine serum, 100 U/ml penicillin, and 100 μg/ml streptomycin sulfate, maintained at […] in humidified incubators with 5% CO2. Upon reaching approximately 80% confluence, the cells were subcultured using a trypsin–EDTA solution. Harvesting occurred during the logarithmic growth phase. The methanolic extract and isolated flavonoids were dissolved in DMSO and stored at − 20 °C. For each experimental trial, the stock solutions were mixed with the culture medium to obtain the required final concentrations.
(§2) The effectiveness of the extract was compared to that of the reference drug, Doxorubicin. The percentage of cell viability was calculated by taking the ratio of the absorbance of the plant extract to that of the control, multiplied by 100. Furthermore, the IC50 value of the plant extract was determined using Sigma Plot software version 11 (Spw.exe) (https://sigmaplot.software.informer.com/11.0/).

[2] = tested on: hepatocellular carcinoma (HepG2); assay: MTT cytotoxicity assay, HepG2; assay type: cell-based, human; conditions: Homo sapiens, HepG2, 48 h, read-out: IC50
Experimental: as §1, §2

[3] = MTT cytotoxicity assay, HTC-116; assay type: cell-based, human; conditions: human, HTC-116 cells (human colorectal carcinoma), 48 h
Experimental: as §1, §2

[4] = tested on: human colorectal carcinoma cells (HTC-116); assay: MTT cytotoxicity assay, HTC-116; assay type: cell-based; conditions: Homo sapiens, HTC-116, 48 h, read-out: IC50
Experimental: as §1, §2

[5] = biological target: T1, 5-LOX enzyme (human recombinant) (Homo sapiens, UniProt P09917); assay: 5-lipoxygenase inhibition assay (5-LOX kit); assay type: biochemical; conditions: mean ± SE, n = 3
T1 construct: purchased Sigma-Aldrich 437996
T1 sequence (P09917 1-674): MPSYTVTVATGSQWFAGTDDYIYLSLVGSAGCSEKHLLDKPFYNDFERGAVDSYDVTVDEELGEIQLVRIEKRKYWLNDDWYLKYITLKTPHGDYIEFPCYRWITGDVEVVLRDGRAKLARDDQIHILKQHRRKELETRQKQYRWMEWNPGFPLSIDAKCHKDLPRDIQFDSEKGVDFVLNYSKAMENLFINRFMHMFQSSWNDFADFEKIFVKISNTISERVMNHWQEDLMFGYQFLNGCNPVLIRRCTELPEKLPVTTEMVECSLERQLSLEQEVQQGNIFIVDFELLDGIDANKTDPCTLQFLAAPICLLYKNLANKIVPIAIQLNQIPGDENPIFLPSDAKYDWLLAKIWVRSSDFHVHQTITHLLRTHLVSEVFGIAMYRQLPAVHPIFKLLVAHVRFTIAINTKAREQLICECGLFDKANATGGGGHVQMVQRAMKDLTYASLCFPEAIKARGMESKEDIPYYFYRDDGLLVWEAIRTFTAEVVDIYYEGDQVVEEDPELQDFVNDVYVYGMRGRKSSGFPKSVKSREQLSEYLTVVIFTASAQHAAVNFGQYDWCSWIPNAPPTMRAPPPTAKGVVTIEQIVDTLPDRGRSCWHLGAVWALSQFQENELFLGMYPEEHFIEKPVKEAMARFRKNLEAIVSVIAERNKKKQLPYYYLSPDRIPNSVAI
Text: (§3) The requirements for High-Performance Liquid Chromatography (HPLC) and all compounds tested were of the utmost analytical purity. […] COX-1 and COX-2 (ovine/human), as well as the 5-LOX enzyme (human recombinant) were obtained from Sigma-Aldrich. Dulbecco’s Modified Eagle’s Medium (DMEM), along with penicillin/streptomycin and L-glutamine, were acquired from Gibco BRL, California, USA. Fetal bovine serum (FBS) and 3-(4, 5-dimethylthiazol-2-yl)-2, 5-[…] (MTT) were supplied by Sigma-Aldrich, St. Louis, Missouri, USA.
(§4) The methanolic extract of V. odorata flowers and isolated flavonoids were subjected to an in vitro anti-inflammatory assessment by inhibiting two isoenzymes, cyclooxygenase COX-1 and COX-2 (ovine/human), as well as the 5-LOX enzyme (human recombinant).

COX-2 = biological target: T2, COX-2 (Homo sapiens, UniProt P35354); assay: COX-2 inhibition assay (Cayman COX kit); assay type: biochemical, ovine/human
T2 construct: purchased Cayman 560131
T2 sequence (P35354 18-604): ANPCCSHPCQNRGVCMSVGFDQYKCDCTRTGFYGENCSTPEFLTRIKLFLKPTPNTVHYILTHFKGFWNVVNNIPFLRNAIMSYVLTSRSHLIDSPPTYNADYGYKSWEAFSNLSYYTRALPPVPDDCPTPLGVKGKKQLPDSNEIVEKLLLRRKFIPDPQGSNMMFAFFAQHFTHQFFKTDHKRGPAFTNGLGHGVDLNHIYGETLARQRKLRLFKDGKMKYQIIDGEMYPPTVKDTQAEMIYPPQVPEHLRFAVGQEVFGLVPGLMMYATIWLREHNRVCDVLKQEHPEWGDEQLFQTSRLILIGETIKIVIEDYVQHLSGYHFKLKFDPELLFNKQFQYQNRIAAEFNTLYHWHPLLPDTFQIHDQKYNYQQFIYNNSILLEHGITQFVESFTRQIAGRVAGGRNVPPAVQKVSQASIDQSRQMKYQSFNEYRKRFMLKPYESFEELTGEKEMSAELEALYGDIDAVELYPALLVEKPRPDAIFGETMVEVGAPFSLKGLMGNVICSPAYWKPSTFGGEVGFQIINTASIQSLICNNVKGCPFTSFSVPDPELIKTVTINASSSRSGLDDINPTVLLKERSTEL
Text: as §3, §4

[6] = MTT cytotoxicity assay, Caco-2; assay type: cell-based, human; conditions: human, Caco-2 cells (human colonic epithelial cells), 48 h
Experimental: as §1, §2

[7] = tested on: human colonic epithelial cells (Caco-2); assay: MTT cytotoxicity assay, Caco-2; assay type: cell-based; conditions: Homo sapiens, Caco-2, 48 h, read-out: IC50
Experimental: as §1, §2

Question: With `COc1c(O)cc2oc(-c3ccccc3)c(OC)c(=O)c2c1O` [5,7-Dihydroxy-3,6-dimethoxyflavone] as the molecule, how does the cytotoxicity at 48 h, 6.25 µg/ml ([1]; HepG2, 6.25 ug/ml) read?
Answer: Its cytotoxicity at 48 h, 6.25 µg/ml is 24.9%.

Question: And the viability at 48 h, 6.25 µg/ml ([1]; HepG2, 6.25 ug/ml, read-out: % Cell viability)?
Answer: The viability at 48 h, 6.25 µg/ml was 75.1%.

Question: And the cytotoxicity at 48 h, 12.5 µg/ml ([1]; HepG2, 12.5 ug/ml)?
Answer: The cytotoxicity at 48 h, 12.5 µg/ml was 35.4%.

Question: What about the viability at 48 h, 12.5 µg/ml ([1]; HepG2, 12.5 ug/ml, read-out: % Cell viability) of the same molecule?
Answer: The viability at 48 h, 12.5 µg/ml was 64.9%.

Question: What about the cytotoxicity at 48 h, 25 µg/ml ([1]; HepG2, 25 ug/ml) of the same molecule?
Answer: Its cytotoxicity at 48 h, 25 µg/ml is 55.9%.

Question: What about the viability at 48 h, 25 µg/ml ([1]; HepG2, 25 ug/ml, read-out: % Cell viability) of the same molecule?
Answer: Its viability at 48 h, 25 µg/ml is 44.1%.

Question: And the cytotoxicity at 48 h, 50 µg/ml ([1]; HepG2, 50 ug/ml)?
Answer: The cytotoxicity at 48 h, 50 µg/ml was 69.9%.

Question: And the viability at 48 h, 50 µg/ml ([1]; HepG2, 50 ug/ml, read-out: % Cell viability)?
Answer: The viability at 48 h, 50 µg/ml was 30.1%.

Question: And the cytotoxicity at 48 h, 100 µg/ml ([1]; HepG2, 100 ug/ml)?
Answer: The cytotoxicity at 48 h, 100 µg/ml was 83.5%.

Question: And the viability at 48 h, 100 µg/ml ([1]; HepG2, 100 ug/ml, read-out: % Cell viability)?
Answer: The viability at 48 h, 100 µg/ml was 16.5%.

Question: And the IC50 [2]?
Answer: The IC50 was 32 µg/mL (≈ 102 µM).

Question: What about the cytotoxicity at 48 h, 6.25 µg/ml ([3]; HTC-116, 6.25 ug/ml) of the same molecule?
Answer: The cytotoxicity at 48 h, 6.25 µg/ml was 29.8%.

Question: And the viability at 48 h, 6.25 µg/ml ([3]; HTC-116, 6.25 ug/ml, read-out: % Cell viability)?
Answer: The viability at 48 h, 6.25 µg/ml was 70.2%.

Question: What about the cytotoxicity at 48 h, 12.5 µg/ml ([3]; HTC-116, 12.5 ug/ml) of the same molecule?
Answer: The cytotoxicity at 48 h, 12.5 µg/ml was 39.2%.

Question: And the viability at 48 h, 12.5 µg/ml ([3]; HTC-116, 12.5 ug/ml, read-out: % Cell viability)?
Answer: The viability at 48 h, 12.5 µg/ml was 60.8%.

Question: And the cytotoxicity at 48 h, 25 µg/ml ([3]; HTC-116, 25 ug/ml)?
Answer: The cytotoxicity at 48 h, 25 µg/ml was 49.9%.

Question: And the viability at 48 h, 25 µg/ml ([3]; HTC-116, 25 ug/ml, read-out: % Cell viability)?
Answer: Its viability at 48 h, 25 µg/ml is 50.1%.

Question: And the cytotoxicity at 48 h, 50 µg/ml ([3]; HTC-116, 50 ug/ml)?
Answer: Its cytotoxicity at 48 h, 50 µg/ml is 64.9%.

Question: And the viability at 48 h, 50 µg/ml ([3]; HTC-116, 50 ug/ml, read-out: % Cell viability)?
Answer: The viability at 48 h, 50 µg/ml was 35.1%.

Question: And the cytotoxicity at 48 h, 100 µg/ml ([3]; HTC-116, 100 ug/ml)?
Answer: The cytotoxicity at 48 h, 100 µg/ml was 85.9%.

Question: What about the viability at 48 h, 100 µg/ml ([3]; HTC-116, 100 ug/ml, read-out: % Cell viability) of the same molecule?
Answer: Its viability at 48 h, 100 µg/ml is 14.1%.

Question: What about the IC50 [4] of the same molecule?
Answer: Its IC50 is 31.9 µg/mL (≈ 101 µM).

Question: And the IC50 [5]?
Answer: Its IC50 is 3.14 µM.

Question: And the IC50 (COX-2; mean ± SE, n = 3)?
Answer: The IC50 was 4.72 µM.

Question: And the “Selectivity Index (COX-1/COX-2)” value (COX-2; ratio of IC50 COX-1 to IC50 COX-2)?
Answer: Its value is 0.83.

Question: And the cytotoxicity at 48 h, 6.25 µg/ml ([6]; Caco-2, 6.25 ug/ml)?
Answer: Its cytotoxicity at 48 h, 6.25 µg/ml is 27.8%.

Question: What about the viability at 48 h, 6.25 µg/ml ([6]; Caco-2, 6.25 ug/ml, read-out: % Cell viability) of the same molecule?
Answer: Its viability at 48 h, 6.25 µg/ml is 72.2%.

Question: And the cytotoxicity at 48 h, 12.5 µg/ml ([6]; Caco-2, 12.5 ug/ml)?
Answer: Its cytotoxicity at 48 h, 12.5 µg/ml is 37.8%.

Question: And the viability at 48 h, 12.5 µg/ml ([6]; Caco-2, 12.5 ug/ml, read-out: % Cell viability)?
Answer: Its viability at 48 h, 12.5 µg/ml is 62.2%.

Question: What about the cytotoxicity at 48 h, 25 µg/ml ([6]; Caco-2, 25 ug/ml) of the same molecule?
Answer: The cytotoxicity at 48 h, 25 µg/ml was 48.9%.

Question: And the viability at 48 h, 25 µg/ml ([6]; Caco-2, 25 ug/ml, read-out: % Cell viability)?
Answer: Its viability at 48 h, 25 µg/ml is 51.1%.

Question: What about the cytotoxicity at 48 h, 50 µg/ml ([6]; Caco-2, 50 ug/ml) of the same molecule?
Answer: Its cytotoxicity at 48 h, 50 µg/ml is 66.5%.

Question: What about the viability at 48 h, 50 µg/ml ([6]; Caco-2, 50 ug/ml, read-out: % Cell viability) of the same molecule?
Answer: Its viability at 48 h, 50 µg/ml is 33.5%.

Question: What about the cytotoxicity at 48 h, 100 µg/ml ([6]; Caco-2, 100 ug/ml) of the same molecule?
Answer: The cytotoxicity at 48 h, 100 µg/ml was 86.7%.

Question: And the viability at 48 h, 100 µg/ml ([6]; Caco-2, 100 ug/ml, read-out: % Cell viability)?
Answer: The viability at 48 h, 100 µg/ml was 13.3%.

Question: And the IC50 [7]?
Answer: The IC50 was 32.8 µg/mL (≈ 104 µM).
